We go through three compounds from patent US9051598B2, “Specific detection of D-glucose by a tetraphenylethene-base fluorescent sensor” (THE HONG KONG UNIVERSITY OF SCIENCE AND TECHNOLOGY, priority 2011, dated 2015).

For data set [1] the following is noted: cited from earlier work.
For data set [2] the following is noted: cited from earlier work. This is another data set of the same source.
Data set [3] in a line: FL response of TPE boronic acid probe to D-glucose in carbonate buffer. The protocol: The present subject matter in one embodiment relates to a selective detection of D-glucose (D-Glu) by TPEDB probe in a sample with its fluorescence enhancement. The concentration or level of D-Glu detectable in a sample is not particularly limited, but is preferably about 0.2 mM or more. […] When 0.2 mM Glu was added, however, the FL spectrum of TPEDB was intensified. The FL intensity increased with an increase in the amount of Glu. At [Glu]=5 mM, the solution of TPEDB became very emissive, with an intensity ca. 5.4-fold higher than that in the absence of Glu.
Into a 100 mL volumetric flask were added 1.120 g of K2CO3, 0.190 g of KHCO3 and 80 mL of deionized water. After adding 3 mL of DMSO into the carbonate buffer, 1 mL of the stock solution of TPEDB in DMSO (10 mM) was added under stirring. The volume of the solution was increased to 100 mL by adding an appropriate amount of deionized water. The resultant solution of TPEDB (0.1 mM) in the carbonate buffer (pH 10.5) was stirred for 15 min before use.
Into a 25 mL volumetric flask was added 90 mg of a saccharide (Glu, Fru, Gal or Man) and 25 mL of deionized water. An aliquot of the resultant stock solution (20 mM) was diluted in another volumetric flask to obtain a sample solution with a desired concentration (2.0 mM, 0.20 mM, 20 μM or 2.0 μM).
An aliquot (2.0 mL) of the stock solution of TPEDB (0.1 mM) in the carbonate buffer containing 4 vol % DMSO and 2.0 mL of the stock solution of Glu (20 mM) were added into a 10 mL volumetric flask. After shaking for a few seconds, a solution of TPEDB (50 μM) with 10 mM of Glu in the carbonate buffer containing 2 vol % DMSO was obtained. The solution was allowed to stand for 30 min before its FL measurement.
To prepare a solution of TPEDB (50 μM) with 8 mM of Glu in the carbonate buffer containing 2 vol % DMSO, 1.6 mL of the stock solution of Glu (20 mM) and 0.4 mL of deionized water were added to 2.0 mL of a stock solution of TPEDB (0.1 mM) in the carbonate buffer containing 4 vol % DMSO.

Data set [4] in a line: FL response of probe to D-fructose in carbonate buffer.
Data set [5] is described as follows: FL response of TPEDB to Glu in the presence of a saccharide interferent. The protocol: In the presence of Fru, the FL spectrum of TPEDB was gradually intensified by the addition of Glu, but the rate of increase in the intensity was lower because of the competition between Glu and Fru to bind with TPEDB. Similarly, Gal and Man interfered with the FL response of TPEDB to Glu, although the effects were smaller.
Solutions of Glu (40 mM-4.0 μM), Fru (0.4 mM), Gal (0.4 mM) and Man (0.4 mM) in deionized water were prepared. An aliquot (2.0 mL) of the solution of TPEDB (0.1 mM) in the carbonate buffer containing 4 vol % DMSO was added into a 10 mL volumetric flask, followed by the addition of 1.0 mL of a solution of Fru (0.4 mM) and 1.0 mL of a solution of Glu (40 mM). After shaking for a few seconds, a solution of TPEDB (50 μM) with 10 mM of Glu and 0.1 mM of Fru in the carbonate buffer containing 2% DMSO was obtained. The solution was allowed to stand for 30 min before its FL measurement. The solution of TPEDB and Glu containing another saccharide (Gal or Man) was prepared by similar procedures.

Data set [6] is described as follows: FL intensity of TPEDB in Britton-Robinson buffers at different pH. It counts as physicochemical. The protocol: (§1) The light emission of TPEDB started to decrease in intensity when the pH of the buffer was raised to >8.61 and became very weak at pH≧9.74. Since the pKa of PBA is ca. 9, TPEDB was ionized by the alkaline medium and became soluble in the buffers with high pH. The solutions of TPEDB were virtually nonfluorescent, while its aggregates were highly emissive, proving that TPEDB, like its parent form TPE, is AIE-active.
Into a 100 mL volumetric flask were added 4.0 mg NaOH and 80 mL of deionized water. After adding 3 mL of DMSO into the carbonate buffer, 1 mL of the stock solution of TPEDB in DMSO (10 mM) was added under stirring. The volume of the solution was increased to 100 mL by adding an appropriate amount of deionized water. The resultant solution of TPEDB (0.1 mM) in the NaOH solution (0.001M) containing 4 vol % DMSO was stirred for 15 min before use.
Into a 100 mL volumetric flask were added 4.611 H3PO4, 2.402 g CH3COOH, and 2.473 g B(OH)3, and the volume of the solution was increased to 100 mL by adding appropriate amount of deionized water. The resultant solution of the acid mixture (0.4 M) was stirred for 15 min before use. Into a 100 mL volumetric flask was added 1.600 g NaOH, and the volume of the solution was increased to 100 mL by adding appropriate amount of deionized water. The resultant solution of base (0.4 M) was stirred for 15 min before use. An aliquot (0.4 mL) of the solution of acid mixture (0.4 M) and appropriate amount of the solution of NaOH (0.4 M) from 0 mL to 1.6 mL were added into a 10 mL volumetric flask. The volume of the solution was increased to 2.0 mL by adding an appropriate amount of deionized water. The resultant standard Britton-Robinson buffer (0.08 M) with various pH was left to stand for a few minutes before use.
An aliquot (2.0 mL) of the stock solution of TPEDB (0.1 mM) in the NaOH solution (0.001M) containing 4 vol % DMSO and 2.0 mL of the standard Britton-Robinson buffer (0.08 M) with various pH were added into a 10 mL volumetric flask. After shaking for a few seconds, solutions of TPEDB (50 μM) with various pH in the Britton-Robinson buffer containing 2 vol % DMSO were obtained. The solutions were allowed to stand for 30 min, and their FL spectra were measured before the pH values were measured using pH-meter.

Data set [7] is described as follows: Miscibility / solubility of TPEDB in aqueous media. It is filed as physicochemical.
Text: as §1

Data set [8] in a line: Detection of Glu in artificial urine by TPEDB. As to conditions: TPEDB 50 μM, carbonate buffer with artificial urine. As to the method:
To explore the potential of TPEDB for real-world applications, the possibility of using TPEDB for detection of Glu in urine was tested. […] The profile of the I/I0 versus [Glu] plot for the urine Glu, however, was different from that for the “pure” Glu (in the carbonate buffer without urine) in the high-[Glu] region. Although the exact reason for this is unclear at the present time, it may be caused by the interactions of urea, α-hydroxycarboxylic acids, and salts in the urine with the boronate units of TPEDB.
An artificial urine was prepared according to the recipe reported by Keevil et al. and Whitesides et al (C. W. Keevil, et al, Lett. Appl. Microbiol. 1997. 24, 203; G. M. Whitesides, et al, Proc. Natl. Acad. Sci. U.S.A. 2008, 105, 19606). 1.1 mM Lactic acid, 2.0 mM citric acid, 25 mM sodium bicarbonate, 170 mM urea, 2.5 mM calcium chloride, 90 mM sodium chloride, 2.0 mM magnesium sulfate, 7.0 mM potassium dihydrogen phosphate, 7.0 mM dipotassium hydrogen phosphate, 10 mM sodium sulfate, and 25 mM ammonium chloride were mixed in deionized water. The pH value of the solution was adjusted to 6.0 by the addition of 1.0 M hydrochloric acid. […]
An aliquot (1 mL) of the artificial urine solution with a desired concentration of Glu was added to 2 mL solution of TPEDB (100 μM) in the carbonate buffer containing 4 vol % DMSO. […] FL spectrum of the mixture was measured after stirring for 30 min.

Data set [9] can be described thus: FL response of probe to D-galactose in carbonate buffer. The following applies: TPEMB 10 μM, 10 vol % DMSO, any amount.
Data set [10] can be described thus: FL response of probe to D-mannose in carbonate buffer. The following applies: TPEMB 10 μM, 10 vol % DMSO, any amount.
Where [11] appears, read: Britton-Robinson buffer, 2 vol % DMSO.

Structures are written as SMILES. Like-named read-outs stand apart in the source and are kept apart here.

As to `OB(O)c1ccccc1` [PBA, phenylboronic acid], the pKa result in [1] is “ca. 9”. For the same compound, the results for the “Ka,sugar/Ka,Glu” value in [2] (Fru), in data set [2] (Gal) and in data set [2] (Man) were 34.8, 3.3 and 2.8, respectively.
For `OB(O)c1ccc(C(=C(c2ccccc2)c2ccc(B(O)O)cc2)c2ccccc2)cc1` [TPEDB, (1,2-diphenylethene-1,2-diyl)bis(1,4-phenylene)-1,1′-diboronic acid], in data set [3] (TPEDB 50 μM, carbonate buffer pH 10.5), the “Glu concentration at which the FL spectrum of TPEDB was intensified (below it almost no change)” value worked out at 0.2 mM. The “[Glu] at which FL intensity reaches its maximum” value in data set [3] (TPEDB 50 μM, carbonate buffer pH 10.5, intensity decreases above) is recorded as 5 mM. Besides, in [4] (10 mM Fru, TPEDB in carbonate buffer), the “Change of emission spectrum on addition of Fru” value is recorded as “only slightly intensified”. The “Interference of the isomeric saccharides to the FL response to Glu” value in [5] (0.1 mM Fru, Gal or Man interferent, TPEDB 50 μM, carbonate buffer) is listed as “almost no interference”. The “Affinity order of saccharide to TPEDB” value in data set [5] (suggested from interference data) is “Fru>Gal≈Man>Glu”. The “pH below which the luminogen is highly emissive” value in data set [6] was less than 9.0. Further, in data set [6] (setting [11]), the “pH above which light emission started to decrease in intensity” value is greater than 8.61 and the “pH at which light emission became very weak” value was no less than 9.74. In [6] (pH 4.34), the “Emission of aggregates suspended in acidic buffer” value was “strong blue light”. Also, the “Solubility in alkaline aqueous media” value in [7] (alkaline aqueous media containing small amount of DMSO) is on record as “readily soluble”. For the same compound, the Miscibility with water entry in data set [7] (water) is “immiscible with water”. For the same compound, the “Effect of Glu in artificial urine on FL spectrum” value in [8] was “augmented its FL spectrum”.
For the compound `OB(O)c1ccc(C(=C(c2ccccc2)c2ccccc2)c2ccccc2)cc1` [TPEMB, 4-(1,2,2-triphenylvinyl)phenylboronic acid], in data set [3] (TPEMB 10 μM, carbonate buffer, 10 vol % DMSO, wide [Glu] range), the “Change in FL spectrum on addition of Glu” value was “little change”. In addition, the “Emission on addition of Fru” value in [4] (TPEMB 10 μM, carbonate buffer, 10 vol % DMSO, any amount) was “remained nonemissive”. Besides, the “Emission on addition of Gal” value in data set [9] is on record as “remained nonemissive”. Moreover, the “Emission on addition of Man” value in data set [10] is given as “remained nonemissive”.
